Test results as given in PubChem BioAssay (NCI).
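Growth conditions: 96-well plates. Treatment: test compound, 48 hours, 5 concentrations. Analysis: linear interpolation between bracketing concentrations; unreached endpoints set to highest concentration. GI50 = concentration required for 50% inhibition of growth. TGI denotes the concentration required for complete inhibition of growth.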

Experiments:
Assay in all cases: inhibition of tumour cell growth, NCI panel, 48 h
BT-549 breast = system: BT-549 breast
RPMI-8226 leukemia = system: RPMI-8226 leukemia
PC-3 prostate = system: PC-3 prostate
TK-10 renal = system: TK-10 renal
SF-539 CNS = system: SF-539 CNS
HCT-15 colon = system: HCT-15 colon
KM12 colon = system: KM12 colon

| SMILES | TGI (BT-549 breast) | TGI (RPMI-8226 leukemia) | TGI (PC-3 prostate) | TGI (TK-10 renal) | TGI (SF-539 CNS) | TGI (HCT-15 colon) | TGI (KM12 colon) | GI50 (BT-549 breast) | GI50 (RPMI-8226 leukemia) | GI50 (PC-3 prostate) | GI50 (TK-10 renal) | GI50 (SF-539 CNS) | GI50 (HCT-15 colon) | GI50 (KM12 colon) |
| --- | --- | --- | --- | --- | --- | --- | --- | --- | --- | --- | --- | --- | --- | --- |
| O=C1OC(CN2CCOCC2)CN1/N=C/c1ccc([N+](=O)[O-])o1 (centres undefined) | > 100 µM | > 100 µM | > 100 µM | > 100 µM | > 100 µM | 39.2 µM | 45.8 µM | – | – | – | – | – | – | – |
| Cc1cccc2c(N)c3ccccc3nc12 | 12.9 µM | 6.73 µM | 8.17 µM | 8.27 µM | 4.28 µM | 10.4 µM | 12.2 µM | 3.23 µM | 2.47 µM | 2.32 µM | 1.78 µM | 1.09 µM | 0.67 µM | 1.78 µM |
| Cc1nc(Nc2nc3ccccc3o2)nc(-c2cccc([N+](=O)[O-])c2)c1C(=O)Nc1ccc(F)c(Cl)c1 | 68.4 µM | 4.26 µM | 11.5 µM | 12.2 µM | > 100 µM | > 100 µM | 12.4 µM | 3.08 µM | 0.724 µM | 0.797 µM | 2.07 µM | 3.52 µM | 2.29 µM | 1.96 µM |
| CNC(=O)OCC1C2=C(C(=O)C(C)=C(N)C2=O)N2CC3C(N3C)C12OC (centres undefined) | > 100 µM | > 100 µM | 64.7 µM | > 100 µM | 87.5 µM | 27 µM | – | – | – | – | – | – | – | – |
| O=C1OC(c2ccccc2)=N/C1=C\c1cccc(F)c1 | > 100 µM | 50.1 µM | > 100 µM | > 100 µM | – | > 100 µM | > 100 µM | – | – | – | – | – | – | – |
| Cn1cnc([N+](=O)[O-])c1Sc1ncn[nH]1 | > 100 µM | > 100 µM | > 100 µM | > 100 µM | > 100 µM | > 100 µM | > 100 µM | > 100 µM | 43.9 µM | > 100 µM | 98.2 µM | > 100 µM | 70.1 µM | > 100 µM |
| COc1ccc(OC)c(Nc2nc(-c3c(C)nc4sccn34)cs2)c1 | > 100 µM | > 100 µM | > 100 µM | > 100 µM | > 100 µM | > 100 µM | > 100 µM | 11 µM | 8.91 µM | 18.1 µM | 87.5 µM | 48.8 µM | > 100 µM | > 100 µM |
| Cc1cc2c(cc1N)C(C)C1(CCC(=O)N2Cc2ccccc2)OCCO1 (centres undefined) | > 100 µM | > 100 µM | > 100 µM | > 100 µM | > 100 µM | > 100 µM | > 100 µM | – | – | – | – | – | – | – |
| COC(=O)[C@@H](C)C[C@H](Cc1ccccc1)NC(=O)c1csc([C@@H](C[C@H](C(C)C)N(C)C(=O)[C@H](C)NC(=O)[C@H]2CCCCN2C)OC(C)=O)n1 | 17.5 µM | > 25 µM | > 25 µM | > 25 µM | 20.6 µM | > 25 µM | > 25 µM | 0.979 µM | 0.567 µM | 0.821 µM | > 25 µM | 1.42 µM | 3.37 µM | 1.11 µM |
| O=C1CC(c2ccc(Cl)cc2)Oc2ccccc21 (centres undefined) | – | 9.12 µM | 52.5 µM | 63.4 µM | 26.1 µM | 48 µM | 31.5 µM | – | – | – | – | – | – | – |
| COc1ccc(C2=CC(c3ccc(OC)c(OC)c3)c3c(c4ccccc4oc3=O)O2)cc1OC (centres undefined) | > 100 µM | 16.7 µM | > 100 µM | > 100 µM | 4.43 µM | > 100 µM | > 100 µM | 92.6 µM | 1.32 µM | 0.745 µM | > 24.9 µM | 1.02 µM | 1.58 µM | 1.25 µM |
| O=C1OC(OCC#CCOC2OC(=O)C(Cl)=C2Cl)C(Cl)=C1Cl (centres undefined) | – | 11.9 µM | 27.1 µM | 21.8 µM | 31.8 µM | 27.3 µM | 39.3 µM | – | – | – | – | – | – | – |
| C=C1[C@@H]([C@@]2(C)C=CC(=O)C(C)(C)[C@@H]2CC(=O)OC)CC[C@@]2(C)C(c3ccoc3)OC(=O)[C@H]3O[C@]132 (some centres undefined) | > 100 µM | – | > 100 µM | > 100 µM | > 100 µM | > 100 µM | > 100 µM | – | – | – | – | – | – | – |
| Clc1nc(Cl)c2ncn(Cc3ccc(Cn4cnc5c(Cl)nc(Cl)nc54)cc3)c2n1 | 18.9 µM | 7.07 µM | 16.3 µM | 35.2 µM | 20.7 µM | 19.3 µM | 31.2 µM | – | – | 1.56 µM | 15.6 µM | 5.04 µM | 6.24 µM | 12.5 µM |
| Cn1c(=O)c(Oc2ccc(F)cc2F)cc2cnc(NCCS(C)(=O)=O)nc21 | > 25 µM | > 25 µM | > 25 µM | > 25 µM | > 25 µM | > 25 µM | > 25 µM | > 25 µM | > 25 µM | > 25 µM | > 25 µM | > 25 µM | > 25 µM | > 25 µM |
| CCn1c2ccccc2c2cc(C(O)c3cccc4ncccc34)ccc21 (centres undefined) | 15.6 µM | 7.85 µM | > 85.7 µM | > 78.6 µM | 0.224 µM | 12.1 µM | 6.56 µM | 0.0702 µM | 0.0724 µM | 0.0413 µM | 3.7 µM | 0.0346 µM | 0.0409 µM | 0.0421 µM |
| COc1cc(/C=C/C(=O)c2cccnc2Nc2ccc(F)cc2)cc(OC)c1OC | 6.72 µM | 8.07 µM | 20 µM | 9.5 µM | 7.29 µM | 5.95 µM | 17.6 µM | 2.7 µM | 2.43 µM | 3.95 µM | 3.52 µM | 2.85 µM | 2.28 µM | 3.72 µM |
| Cc1cc(OCc2nnc3n2N=C(c2ccc(Cl)cc2Cl)CS3)ccc1Cl | > 100 µM | > 100 µM | > 100 µM | > 100 µM | > 100 µM | > 100 µM | > 100 µM | 25.9 µM | 40.6 µM | 51.3 µM | 32 µM | > 100 µM | 39.4 µM | 53.3 µM |
| CC(C)CCN[C@@H]1CCc2cc(O)c(N3CC(=O)NS3(=O)=O)c(F)c2C1 | > 100 µM | > 100 µM | > 100 µM | > 100 µM | > 100 µM | > 100 µM | > 100 µM | 5.44 µM | > 100 µM | > 100 µM | > 100 µM | 20.3 µM | > 100 µM | > 100 µM |
| CCCNc1nc2ccccc2c2c1S(=O)(=O)c1ccc(Cl)cc1C2=O | > 50 µM | 2.86 µM | > 50 µM | > 50 µM | 3.63 µM | > 50 µM | > 50 µM | 0.734 µM | 0.345 µM | 0.225 µM | 3.14 µM | 1.26 µM | 0.728 µM | 1.49 µM |
